Measured values from patent publication US20150218212A1, “FLUORINATED EPOXYKETONE-BASED TETRAPEPTIDE COMPOUNDS AND USES THEREOF AS PROTEASOME INHIBITORS” (FLUORINOV PHARMA INC., priority 2012, published 2015).

Target: T1, chymotrypsin-like (CT-L) proteasome activity (Homo sapiens, UniProt P20618+P28074)
T1 sequence (P28074 60-263): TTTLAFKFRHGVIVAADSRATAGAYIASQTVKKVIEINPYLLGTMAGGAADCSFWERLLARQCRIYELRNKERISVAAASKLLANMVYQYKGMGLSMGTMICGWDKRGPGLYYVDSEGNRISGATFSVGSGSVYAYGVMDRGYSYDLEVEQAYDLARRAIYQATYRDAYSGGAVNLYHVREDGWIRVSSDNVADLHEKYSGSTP
T1 sequence (P20618 29-241): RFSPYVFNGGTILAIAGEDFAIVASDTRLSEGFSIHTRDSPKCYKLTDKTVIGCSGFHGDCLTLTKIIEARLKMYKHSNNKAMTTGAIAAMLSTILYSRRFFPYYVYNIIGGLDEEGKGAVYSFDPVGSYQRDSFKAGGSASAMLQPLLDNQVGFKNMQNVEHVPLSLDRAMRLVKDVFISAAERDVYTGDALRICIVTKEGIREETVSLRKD
Test: Proteasome enzymatic activity (tumor cell lysates), CT-L, OCI-AML-2
Format: biochemical
Conditions: OCI-AML-2, mean ± standard deviation
Experimental: Human multiple myeloma cell lines 8226, H929, JJN3, KMH11, KMS11, KMS18, LP1, MM1S, OPM2 and U266 were grown in Iscove modified Dulbecco's medium (IMDM). Human leukemia cell lines K562, OCI-AML2 and U937 were cultured in RPMI-1640 medium. Primary peripheral blood mononuclear cells were isolated from multiple myeloma patients by Ficoll density gradient centrifugation and bone marrow aspirates were obtained from multiple myeloma patients at the Princess Margaret Cancer Centre of the University Health Network (UHN; Toronto, ON, Canada). Primary cells were cultured in IMDM. The collection and use of human tissue for this study was approved by the UHN institutional ethics review board. All cell culture media were obtained from the Ontario Cancer Institute Tissue Culture Media Facility (Toronto, ON, Canada) and were supplemented with 10% fetal calf serum, […] (Hyclone, Logan, Utah). All cells were grown in a humidified incubator at 37° C. with 5% CO2.
Cells were harvested by centrifugation at 1,200 rpm at room temperature. Cell pellets were washed with PBS (phosphate buffered saline) and lysed with assay lysis buffer (50 mM HEPES (N-2-hydroxyethylpiperazine-N′-2-ethanesulfonic acid), pH 7.5; 150 mM NaCl; 1% Triton X-100; 2 mM ATP). Cell lysates were incubated on ice for 30 minutes, mixed by vortex every 5 minutes, and then centrifuged at 12,000 g for 10 minutes. The supernatant was transferred to a 96-well plate. For each assay, 10 μg of total protein were incubated for 1 hour at 37° C. with increasing concentrations (1 nM to 10 μM) of test compound diluted in assay buffer (50 mM tris-HCl (tris(hydroxymethyl)aminomethane-HCl), pH 7.5; 150 mM NaCl). DMSO alone was used as a control in every assay plate. After incubation, a specific fluorogenic proteasome substrate was added to each assay reaction at a final concentration of 40 μM in a total volume of 100 μL. N-Succinyl-Leu-Leu-Val-Tyr-7-amino-4-methylcoumarin (Suc-Leu-Leu-Val-Tyr-AMC) was used for measuring chymotrypsin-like (CT-L) activity, t-butoxycarbonyl-Leu-Arg-Arg-7-amino-4-methylcoumarin (Boc-Leu-Arg-Arg-AMC) for trypsin-like (T-L) activity, and benzyloxycarbonyl-L-leucyl-L-leucyl-L-glutamyl-7-amino-4-methylcoumarin (Z-Leu-Leu-Glu-AMC) for caspase-like (C-L) activity. The excitation wavelength was set at 360 nm and the fluorescence emission wavelength of AMC was detected at 460 nm. The fluorescence of free AMC released during the enzymatic reaction was measured with a SpectraMax M5 fluorescent spectrophotometric plate reader (Molecular Devices, Sunnyvale, Calif.). AMC release rate was measured at 37° C. in a kinetic mode, recording every 5 minutes for 30 minutes. Experiments were performed in triplicate and repeated at least twice.
Table 8 summarizes the data of representative compounds of Formula I for cell viability and CT-L proteasome activity with OCI-AML-2 and KMS-11 cell lines.

Compound | IC50 [nM]
CC(C)C[C@H](NC(=O)[C@H](COC(F)F)NC(=O)CN1CCOCC1)C(=O)N[C@@H](COC(F)F)C(=O)N[C@@H](CC(C)C)C(=O)[C@@]1(C)CO1 [Example 1, (2S)—N-[(1S)-1-(difluoromethoxymethyl)-2-[[(1S)-3-methyl-1-[(2R)-2-methyloxirane-2-carbonyl]butyl]amino]-2-oxo-ethyl]-2-[[(2S)-3-(difluoromethoxy)-2-[(2-morpholinoacetyl)amino]propanoyl]amino]-4-methyl-pentanamide] | 39 ± 1.24
CC(C)C[C@H](NC(=O)[C@H](COC(F)F)NC(=O)CN1CCOCC1)C(=O)N[C@@H](Cc1ccccc1)C(=O)N[C@@H](CC(C)C)C(=O)[C@@]1(C)CO1 [Example 2, (2S)-N-[(1S)-1-benzyl-2-[[(1S)-3-methyl-1-[(2R)-2-methyloxirane-2-carbonyl]butyl]-amino]-2-oxo-ethyl]-2-[[(2S)-3-(difluoromethoxy)-2-[(2-morpholinoacetyl)amino]propanoyl]amino]-4-methyl-pentanamide] | 41.2 ± 3.19
CC(C)C[C@H](NC(=O)[C@H](COC(F)F)NC(=O)CN1CCOCC1)C(=O)N[C@@H](Cc1ccccc1)C(=O)N[C@@H](Cc1ccccc1)C(=O)[C@@]1(C)CO1 [Example 3, (2S)-N-[(1S)-1-benzyl-2-[[(1S)-1-benzyl-2-[(2R)-2-methyloxiran-2-yl]-2-oxo-ethyl]amino]-2-oxo-ethyl]-2-[[(2S)-3-(difluoromethoxy)-2-[(2-morpholinoacetyl)-amino]propanoyl]amino]-4-methyl-pentan-amide] | 30 ± 2.44
CC(C)C[C@H](NC(=O)[C@H](COC(F)F)NC(=O)CN1CCOCC1)C(=O)N[C@@H](COC(F)F)C(=O)N[C@@H](Cc1ccccc1)C(=O)[C@@]1(C)CO1 [Example 4, (2S)-N-[(1S)-2-[[(1S)-1-benzyl-2-[(2R)-2-methyloxiran-2-yl]-2-oxo-ethyl]amino]-1-(difluoromethoxymethyl)-2-oxo-ethyl]-2-[[(2S)-3-(difluoromethoxy)-2-[(2-mor-pholinoacetyl)amino]propanoyl]amino]-4 methyl-pentanamide] | 20.9 ± 0.91
CC(C)C[C@H](NC(=O)[C@H](COC(F)F)NC(=O)[C@H](COC(F)F)NC(=O)[C@H](CCc1ccccc1)NC(=O)CN1CCOCC1)C(=O)[C@@]1(C)CO1 [Example 7, (2S)-N-[(1S)-1-(difluoromethoxymethyl)-2-[[(1S)-1-(difluoromethoxymethyl)-2-[[(1S)-3-methyl-1-[(2R)-2-methyloxirane-2-carbo-nyl]butyl]amino]-2-oxo-ethyl]amino]-2-oxo-ethyl]-2-[(2-morpholinoacetyl)amino]-4-phenyl-butanamide] | 24.7 ± 9.6
CC(C)C[C@H](NC(=O)[C@H](Cc1ccccc1)NC(=O)[C@H](COC(F)F)NC(=O)[C@H](COC(F)F)NC(=O)CN1CCOCC1)C(=O)[C@@]1(C)CO1 [Example 11, (2S)-2-[[(2S)-3-(difluoromethoxy)-2-[[(2S)-3-(difluoromethoxy)-2-[(2-morpholinoacetyl)-amino]propanoyl]amino]propanoyl]amino]-N-[(1S)-3-methyl-1-[(2R)-2-methyloxirane-2-carbonyl]butyl]-3-phenyl-propanamide] | 30.5 ± 3.9
CC(C)C[C@H](NC(=O)[C@H](COC(F)F)NC(=O)[C@H](COC(F)F)NC(=O)[C@H](COC(F)F)NC(=O)CN1CCOCC1)C(=O)[C@@]1(C)CO1 [Example 17, (2S)-3-(difluoromethoxy)-N-[(1S)-1-(difluoromethoxymethyl)-2-[[(1S)-1-(difluoro-methoxymethyl)-2-[[(1S)-3-methyl-1-[(2R)-2-methyloxirane-2-carbonyl]butyl]amino]-2-oxo-ethyl]amino]-2-oxo-ethyl]-2-[(2-mor-pholinoacetyl)amino]-propanamide] | 58.3 ± 3.11
